Earlier results as cited in patent US20050043786A1, “Methods and apparatus for treatment of aneurysmal tissue” (Medtronic AVE, Inc., priority 2003, published 2005).

Conditions: for route of clearance / elimination: in vivo

Compound | route of clearance / elimination | also measured
C[C@H](CS)C(=O)N1CCC[C@H]1C(=O)O [captopril] |  | bioavailability (given orally): about 75%
CCC(=O)O[C@@H](O[P@](=O)(CCCCc1ccccc1)CC(=O)N1C[C@H](C2CCCCC2)C[C@H]1C(=O)O)C(C)C [fosinopril] | balanced elimination by the liver and kidneys | 
NCCCC[C@H](N[C@@H](CCc1ccccc1)C(=O)O)C(=O)N1CCC[C@H]1C(=O)O [lisinopril] |  | time of peak concentrations in the plasma (oral administration): about 7 hours
CCOC(=O)[C@H](CCc1ccccc1)N[C@@H](C)C(=O)N1CC2(C[C@H]1C(=O)O)SCCS2 [spirapril] | balanced elimination by the liver and kidneys | 
